Patent publication US7501413B2, “Dicarboxamide derivatives” (Hoffmann-La Roche Inc., priority 2004, dated 2009)

The compounds below were run against T1, human factor Xa (Homo sapiens, UniProt P00742) (assay: Factor Xa chromogenic peptide substrate assay (S-2222)). Settings: human factor Xa 3 nM, chromogenic substrate S-2222 at 200 nM, HNPT buffer pH 7.8, room temperature; apparent Ki calculated from IC50 (Cheng-Prusoff), Km 613 μM.
T1 construct: purchased Enzyme Research Laboratories
Format: biochemical
Method: Factor Xa activity was measured spectrophotometrically in microtiter plates in a final volume of 150 μl using the following conditions: Inhibition of human factor Xa (Enzyme Research Laboratories) was tested at an enzyme concentration of 3 nM using the chromogenic substrate S-2222 (Chromogenix AB, Mölndal, Sweden) at […]. The reaction kinetics of the enzyme and the substrate were linear with both time and the enzyme concentration. The inhibitors were dissolved in DMSO and tested at various concentrations up to 100 μM. The inhibitors were diluted using HNPT buffer consisting of HEPES 100 mM, NaCl 140 mM, PEG 6000 0.1% and Tween 80 0.02%, pH 7.8. The cleavage of S-2222 by human factor Xa was followed at 405 nm for 5 minutes at room temperature. The velocity of the reaction was determined by the autoreader from the slope of the linear regression fit to 7 time points (1 minute). The initial velocity for each inhibitor concentration was determined by the slope of at least 4 time points in the linear phase by a linear regression fit (mOD/min^2). Apparent dissociation constants Ki were calculated according to Cheng and Prusoff [Cheng, Y. C.; Prusoff, W. H. Relationship between the inhibition constant (Ks) and the concentration of the inhibitor that causes 50 percent inhibition (IC50) of an enzyme reaction. Biochem. Pharmacol. 1973, 22, 3099-3108.] based on the IC50 and the respective Km, determined previously (Ki=IC50/(1+S/Km)). The Km for the substrate used was determined under the conditions of the test with at least 5 substrate concentrations ranging from 0.5 to 15 times Km. [Lottenberg R, Hall J A, Blinder M, Binder E P, Jackson C M., The action of thrombin on peptide p-nitroanilide substrates. Substrate selectivity and examination of hydrolysis under different reaction conditions. Biochim Biophys Acta. 1983 Feb. 15; 742(3):539-57]. according to Eadie [Eadie G. S. The inhibition of cholinesterase by physostigmine and prostigmine. J. Biol. Chem. 1942, 146, 85-93.]. The Km for S-2222 amounted to 613 μM.

T1 sequence (P00742 235-488 limits assumed): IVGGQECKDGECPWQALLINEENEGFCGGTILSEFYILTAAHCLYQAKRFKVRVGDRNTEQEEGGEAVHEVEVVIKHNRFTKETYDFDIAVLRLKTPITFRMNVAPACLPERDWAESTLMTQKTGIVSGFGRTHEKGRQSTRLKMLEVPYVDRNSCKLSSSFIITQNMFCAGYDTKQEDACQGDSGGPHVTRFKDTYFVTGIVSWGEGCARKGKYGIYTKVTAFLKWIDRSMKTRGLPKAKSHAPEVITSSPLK
T1 sequence (P00742 41-179 partner limits assumed): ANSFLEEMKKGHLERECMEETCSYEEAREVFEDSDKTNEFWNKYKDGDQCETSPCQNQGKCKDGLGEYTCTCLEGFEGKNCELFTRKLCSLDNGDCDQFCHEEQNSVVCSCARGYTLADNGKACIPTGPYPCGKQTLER

Structure (SMILES) | Ki
COC1(CO)C[C@H](C(=O)Nc2ccc(Cl)cc2)[C@@H](C(=O)Nc2ccc(-n3ccccc3=O)cc2F)C1 (single isomer, unassigned) [Example 47, (1S,2S,4S)- or (1S,2S,4R)-4-Hydroxymethyl-4-methoxy-cyclopentane-1,2-dicarboxylic acid 1-[(4-chloro-phenyl)-amide]2-{[2-fluoro-4-(2-oxo-2H-pyridin-1-yl)-phenyl]-amide}] | 0.009 µM
O=C(Nc1ccc(Cl)cc1)[C@H]1CC2(CC2)C[C@@H]1C(=O)Nc1ccc(-n2ccccc2=O)cc1F [Example 48, (5S,6S)-Spiro[2.4]heptane-5,6-dicarboxylic acid (4-chloro-phenyl)-amide [2-fluoro-4-(2-oxo-2H-pyridin-1-yl)-phenyl]-amide] | 0.008 µM
O=C(Nc1ccc(Cl)cc1)[C@H]1C[C@@H](O)C[C@H]1C(=O)Nc1ccc(-n2ccccc2=O)cc1F [Example 52, (1S,2S,4S)-4-Hydroxy-cyclopentane-1,2-dicarboxylic acid 1-[(4-chloro-phenyl)-amide]2-{[2-fluoro-4-(2-oxo-2H-pyridin-1-yl)-phenyl]-amide}] | 0.013 µM
